Like-named read-outs stand apart in the source and are kept apart here.
What was measured:
[1] = Pharmacokinetic study in male Sprague-Dawley rats (IV and PO), plasma; format: in vivo, rat; details: for AUC(0-t) / Cmax at 5 min / half-life / AUC(0-inf): male, Sprague-Dawley; for AUC(0-t) / Cmax at 5 min / half-life / AUC(0-inf) / AUC—% Extrap—obs / Cl_obs / Vz_obs: rat plasma; for AUC(0-inf): read-out: AUCINF—obs; for F: rat
Description: Pharmacokinetic studies were conducted to estimate plasma concentrations obtained after oral gavage (PO) and intravenous (IV) single administration of compounds administered to male Sprague-Dawley rats. Six (6) rats were administered for each compound, route and dose, and plasma was collected at 12 timepoints over a 24 hr period for IV, and 12 timepoints over a 48 hr period for PO. Note that plasma was collected from only 3 animals per timepoint (n=3 for timepoints up to 10 hours, and n=3 for timepoints from 16 h to end of study). Dosing volumes were 5 mL/kg for IV and 10 mL/kg for PO gavage. IV compounds for administration were in solutions, whereas PO compounds were in solution or suspension.
The in-vivo study plasma samples were analyzed using Ultra Performance Liquid Chromatography (UPLC) with tandem mass spectrometry (MS/MS) detection in multiple reaction monitoring (MRM) mode. A generic bioanalytical method involving plasma sample extraction and cleanup by protein precipitation with acetonitrile was used followed by UPLC-MS/MS analysis.
A brief example of a generic bioanalytical UPLC-MS/MS method used for analysis of compounds in the in-vivo study plasma samples is as follows. Plasma samples were spiked with internal standard prior to extraction and cleanup by protein precipitation with ice cold acetonitrile containing 0.1% (v/v) ammonium hydroxide at a ratio of 3:1 (solvent:plasma) and centrifuged at 18213 rcf for 15 minutes at 4° C. to pellet precipitates. Aliquots of supernatants were transferred to a 96-well plate and evaporated to dryness at 40° C. under a stream of nitrogen gas. Samples were reconstituted in 50:50 acetonitrile/10 mM ammonium acetate buffer pH 8, mixed thoroughly and analyzed using Ultra Performance Liquid Chromatography (UPLC) with tandem mass spectrometry (MS/MS) detection in multiple reaction monitoring (MRM) mode. Matrix-matched calibration standards and quality control (QC) samples were prepared in naïve C57Bl/6 mouse plasma. The UPLC column used was Waters Acquity UPLC BEH C18 1.7 um, 2.1 mm×50 mm (with guard column). The UPLC mobile phase consisted of: Mobile phase A: 10 mM ammonium acetate in Water pH 8, and Mobile phase B: Acetonitrile. Separation was accomplished with a linear gradient of 5% mobile phase B to 95% mobile phase B in 2 min, and a flow rate of 0.35 mL/min. The MS/MS data acquisition was accomplished using 3 MRM Transitions in ESI+ mode. Parent ion mass 508.37 m/z-to-Daughter ions (m/z) 117.05, 232.13 and 270.22. The quantitation of concentrations in test samples was achieved by matrix-matched calibration with normalization using an internal standard. Data acquisition and analysis were performed using Waters MassLynx software with TargetLynx application manager.
Estimation of PK parameters was performed using independent noncompartmental model method by PHOENIX WinNonlin software.

[2] = test system: HCT116 tumour spheroids; test: Spheroid + radiation colony forming cell survival assay (SF), HCT116; format: cell-based; details: Homo sapiens, HCT-116, 8 Gy
Description: Multicellular tumour spheroids determination of compound inhibition of pDNA-PK induction following radiation. Tumour spheroids were grown to approximately 0.5 mm in diameter and irradiated with 20 Gy in combination with inhibitor test compounds to determine their potency. Inhibitor concentration for 50% reduction in pDNA-PK induction (IC50) was determined via immunohistochemical staining in spheroid cryosections taken 2 hours following radiation. For cell survival endpoint 8 Gy radiation was used and 3 hours following radiation spheroids were dissociated, counted and plated for colony forming endpoint.
Spheroid+radiation colony forming cell survival assay (SF). Radiation 8 Gy. Drug: serial dilution 5 μM down to 10 nM (12 wells×2 repeat). Spheroids: 5-10 spheroids per well (300 to 500 μm diameter). HCT116. 5% 02 and 5% CO2. 96 well pate format for assay. Protocol: pre incubate 1 hour with drug, irradiate 8 Gy, post incubate 3 hrs with drug, dissociate spheroids and count cells and plate for colony forming assay. Endpoint: wait 4-7 days and count colonies. Analysis: determine EC50 concentration that increase cell kill by 50% over radiation alone.
Multicellular tumour spheroids were used to determine potency of test compounds in a 3D tissue environment using inhibition of pDNA-PK induction following radiation or cell survival as the endpoint. For the pDNA-PK endpoint HCT116 or FaDU tumour spheroids were grown to approximately 0.5 mm in diameter and irradiated with 20 Gy in combination with inhibitor test compounds to determine their potency. Experiments were carried out in 96 well plates containing 0.7 mls of MEM media containing 10% FBS and 10 mM glucose under 20% O2 & 5% CO2 at 37° C. Following dilution of compounds 1:1000 from DMSO stocks, compounds were serially diluted from 10 μM down to 3.5 nM and 5-10 spheroids added. 96 well plates were constantly stirred to avoid spheroids settling during the course of the experiment. The inhibitor concentration for 50% reduction in pDNA-PK induction (EC50) was determined via immunohistochemical staining in spheroid cryosections taken 2 hours following radiation using anti-pDNA-PK (ser 2056) and fixed immediately in formalin following sectioning. For cell survival endpoint 8 Gy radiation was used and, 3 hours following radiation, spheroids were dissociated, counted and plated for colony forming endpoint. Data presented in the table compound potency as EC50 [μM].

[3] = plated 3 hours following radiation, Example 9 Study 2, read-out: Spheroid Cell line: HCT116 Colony forming endpoint Surviving Fraction EC50
[4] = spheroids, 5% O2, concentration that increases cell kill by 50% over radiation alone, Example 8, read-out: Cell line: HCT116 Colony forming endpoint Surviving Fraction EC50

AUC(0-t) ([1]; IV, 3 mg/kg)	Cmax at 5 min ([1]; IV, 3 mg/kg)	half-life ([1]; IV, 3 mg/kg)	AUC(0-inf) ([1]; IV, 3 mg/kg)	AUC(0-t) ([1]; PO, 3 mg/kg)	Cmax at 5 min ([1]; PO, 3 mg/kg)	half-life ([1]; PO, 3 mg/kg)	AUC(0-inf) ([1]; PO, 3 mg/kg)	AUC(0-t) ([1]; PO, 10 mg/kg)	Cmax at 5 min ([1]; PO, 10 mg/kg)	half-life ([1]; PO, 10 mg/kg)	AUC(0-inf) ([1]; PO, 10 mg/kg)	AUC(0-t) ([1]; PO, 30 mg/kg)	Cmax at 5 min ([1]; PO, 30 mg/kg)	half-life ([1]; PO, 30 mg/kg)	AUC(0-inf) ([1]; PO, 30 mg/kg)	AUC—% Extrap—obs ([1]; IV, 3 mg/kg)	Cl_obs ([1]; IV, 3 mg/kg)	SMILES	EC50 [2, 3]	EC50 [2, 4]	also measured
488 ng·h/mL	183 ng/mL	4.82 h	501 ng·h/mL	305 ng·h/mL	27.2 ng/mL	2.81 h	308 ng·h/mL	1550 ng·h/mL	140 ng/mL	3.23 h	1570 ng·h/mL	5870 ng·h/mL	482 ng/mL	6.47 h	5890 ng·h/mL	2.61%	99.8872 mL/min/kg	CN1CCN(CCOc2cnc(N[C@H]3CC[C@@H](Oc4nc(N5CCOCC5)cc5ncccc45)CC3)nc2)CC1 [Compound 69, 5-(2-(4-Methylpiperazin-1-yl)ethoxy)-N-((1s,4s)-4-((7-morpholino-1,6-naphthyridin-5-yl)oxy)cyclohexyl)pyrimidin-2-amine]			Vz_obs ([1]; IV, 3 mg/kg): 41.64841 L/kg; AUC—% Extrap—obs ([1]; PO, 3 mg/kg): 1.07%; Cl_obs ([1]; PO, 3 mg/kg): 162.417 mL/min/kg; Vz_obs ([1]; PO, 3 mg/kg): 39.5678 L/kg; AUC—% Extrap—obs ([1]; PO, 10 mg/kg): 1.16%; Cl_obs ([1]; PO, 10 mg/kg): 106.252 mL/min/kg; Vz_obs ([1]; PO, 10 mg/kg): 29.72118 L/kg; AUC—% Extrap—obs ([1]; PO, 30 mg/kg): 0.37%; Cl_obs ([1]; PO, 30 mg/kg): 84.9088 mL/min/kg; Vz_obs ([1]; PO, 30 mg/kg): 47.52784 L/kg; F ([1]; PO, 3 mg/kg): 62%; F ([1]; PO, 10 mg/kg): 95%; F ([1]; PO, 30 mg/kg): 120%
																		CS(=O)(=O)NC(=O)c1cnc2cc(N3CCOCC3)nc(O[C@H]3CC[C@@H](n4ccnc4)CC3)c2c1 [Compound 175, 5-(((1s,4s)-4-(1H-imidazol-1-yl)cyclohexyl)oxy)-N-(methylsulfonyl)-7-morpholino-1,6-naphthyridine-3-carboxamide]	10 to 100 µM	10 to 100 µM	
																		CN(C)CCOc1cnc(N[C@H]2CC[C@@H](Oc3nc(N4CCOCC4)cc4ncccc34)CC2)nc1 [Compound 64, 5-(2-(Dimethylamino)ethoxy)-N-((1s,4s)-4-((7-morpholino-1,6-naphthyridin-5-yl)oxy)cyclohexyl)pyrimidin-2-amine]	0.01 to 0.5 µM	0.01 to 0.5 µM	
371 ng·h/mL	886 ng/mL	0.67 h	374 ng·h/mL	71.6 ng·h/mL	28.2 ng/mL	2.59 h	78.4 ng·h/mL	1290 ng·h/mL	203 ng/mL	2.39 h	1490 ng·h/mL	14100 ng·h/mL	1600 ng/mL	1.26 h	14100 ng·h/mL	0.91%	133.623 mL/min/kg	CN(C)C(=O)Cn1ccc2nc(N[C@H]3CC[C@@H](Oc4nc(N5CCOCC5)cc5ncccc45)CC3)ncc21 [Compound 86, N,N-Dimethyl-2-(2-(((1s,4s)-4-((7-morpholino-1,6-naphthyridin-5-yl)oxy)cyclohexyl)amino)-5H-pyrrolo[3,2-d]pyrimidin-5-yl)acetamide]			Vz_obs ([1]; IV, 3 mg/kg): 7.72522 L/kg; AUC—% Extrap—obs ([1]; PO, 3 mg/kg): 8.66%; Cl_obs ([1]; PO, 3 mg/kg): 637.8442 mL/min/kg; Vz_obs ([1]; PO, 3 mg/kg): 142.79445 L/kg; AUC—% Extrap—obs ([1]; PO, 10 mg/kg): 13.08%; Cl_obs ([1]; PO, 10 mg/kg): 111.962 mL/min/kg; Vz_obs ([1]; PO, 10 mg/kg): 23.13291 L/kg; AUC—% Extrap—obs ([1]; PO, 30 mg/kg): 0.0%; Cl_obs ([1]; PO, 30 mg/kg): 35.5335 mL/min/kg; Vz_obs ([1]; PO, 30 mg/kg): 3.87755 L/kg; F ([1]; PO, 3 mg/kg): 19%; F ([1]; PO, 10 mg/kg): 105%; F ([1]; PO, 30 mg/kg): 379%
																		CN(C)C(=O)COc1cnc(N[C@H]2CC[C@@H](Oc3nc(N4CCOCC4)cc4ncccc34)CC2)nc1 [Compound 54, N,N-Dimethyl-2-((2-(((1s,4s)-4-((7-morpholino-1,6-naphthyridin-5-yl)oxy)cyclohexyl)amino)pyrimidin-5-yl)oxy)acetamide]	0.01 to 0.5 µM	0.01 to 0.5 µM	
																		O=C(O)c1cnc2cc(N3CCOCC3)nc(O[C@H]3CC[C@@H](n4ccnc4)CC3)c2c1 [Compound 165, 5-(((1s,4s)-4-(1H-imidazol-1-yl)cyclohexyl)oxy)-7-morpholino-1,6-naphthyridine-3-carboxylic acid]	10 to 100 µM	10 to 100 µM	
912 ng·h/mL	1600 ng/mL	1.49 h	913 ng·h/mL	241 ng·h/mL	87.5 ng/mL	5.68 h	330 ng·h/mL	1070 ng·h/mL	235 ng/mL	2.64 h	1220 ng·h/mL	5760 ng·h/mL	655 ng/mL	13.7 h	15800 ng·h/mL	0.10%	54.761 mL/min/kg	O=C(COc1cnc(N[C@H]2CC[C@@H](Oc3nc(N4CCOCC4)cc4ncccc34)CC2)nc1)N1CCOCC1 [Compound 61, 1-Morpholino-2-((2-(((1s,4s)-4-((7-morpholino-1,6-naphthyridin-5-yl)oxy)cyclohexyl)amino)pyrimidin-5-yl)oxy)ethan-1-one]			Vz_obs ([1]; IV, 3 mg/kg): 7.05679 L/kg; AUC—% Extrap—obs ([1]; PO, 3 mg/kg): 26.80%; Cl_obs ([1]; PO, 3 mg/kg): 151.581 mL/min/kg; Vz_obs ([1]; PO, 3 mg/kg): 74.5443 L/kg; AUC—% Extrap—obs ([1]; PO, 10 mg/kg): 12.39%; Cl_obs ([1]; PO, 10 mg/kg): 136.306 mL/min/kg; Vz_obs ([1]; PO, 10 mg/kg): 31.192 L/kg; AUC—% Extrap—obs ([1]; PO, 30 mg/kg): 63.5%; Cl_obs ([1]; PO, 30 mg/kg): 31.6652 mL/min/kg; Vz_obs ([1]; PO, 30 mg/kg): 37.65453 L/kg; F ([1]; PO, 3 mg/kg): 26%; F ([1]; PO, 10 mg/kg): 35%; F ([1]; PO, 30 mg/kg): 63%
